≈ marks a conversion by molar mass, not a printed value. Bridge positions count the residues as written; N and C are the ends. Peptide text beside a SMILES is read from it.
How the values were obtained:
[1] = tested on: Human immunodeficiency virus 1; assay: Antiviral activity against HIV1; format: functional, organism-based
[2] = tested on: Human immunodeficiency virus; assay: Antiviral activity against HIV infected in human MOLT4 cells assessed as inhibition of virus-induced cytopathic effect; format: functional, organism-based; conditions: Human immunodeficiency virus 1, MOLT-4

EC50 [1] [µM]	EC50 [2] [ng/mL]	SMILES
0.04	–	CC[C@H](C)[C@@H]1NC(=O)[C@H](CCCCN)NC(=O)[C@H](CC(=O)O)NC(=O)[C@H](Cc2cnc[nH]2)NC(=O)[C@H](Cc2ccc(O)cc2)NC(=O)[C@@H]2CSSC[C@@H]3NC(=O)[C@@H]4CCCN4C(=O)[C@H]([C@@H](C)CC)NC(=O)[C@H](Cc4c[nH]c5ccccc45)NC(=O)[C@H](C(C)C)NC(=O)[C@@H]4CSSC[C@H](NC(=O)[C@H](CCCCN)NC(=O)[C@H](CSSC[C@H](NC(=O)[C@@H]5CCCN5C1=O)C(=O)NCC(=O)N[C@@H](CCC(=O)O)C(=O)N[C@@H](CO)C(=O)N4)NC(=O)[C@H](CC(N)=O)NC(=O)[C@H](Cc1ccccc1)NC(=O)[C@H](C(C)C)NC(=O)[C@H](CO)NC(=O)[C@H]([C@@H](C)O)NC(=O)[C@H](CC(C)C)NC3=O)C(=O)N[C@@H](CCC(=O)O)C(=O)N[C@@H](CC(N)=O)C(=O)N[C@@H](CCCCN)C(=O)N[C@@H](C(C)C)C(=O)N2 [CIRCULIN E] (cyclo(CENKVCYHDKIPCGESCVWIPCLTSVFNCK); disulfide 1-17, 6-22, 13-29)
0.04	–	CC[C@H](C)[C@@H]1NC(=O)[C@H](C)NC(=O)[C@H](C)NC(=O)[C@H](CO)NC(=O)[C@H]([C@@H](C)CC)NC(=O)[C@@H]2CSSC[C@@H]3NC(=O)[C@H](C(C)C)NC(=O)[C@H](CCCCN)NC(=O)[C@H](CC(N)=O)NC(=O)[C@H](CCCCN)NC(=O)[C@@H]4CSSC[C@H](NC(=O)[C@H](CO)NC(=O)[C@H](CCC(=O)O)NC(=O)CNC(=O)[C@H](CSSC[C@H](NC(=O)CNC1=O)C(=O)N[C@@H](CO)C(=O)N4)NC(=O)[C@@H]1CCCN1C(=O)[C@H]([C@@H](C)CC)NC(=O)[C@H](C)NC(=O)[C@H](CCCNC(=N)N)NC(=O)[C@H](Cc1ccc(O)cc1)NC3=O)C(=O)N[C@@H](C(C)C)C(=O)N[C@@H](Cc1c[nH]c3ccccc13)C(=O)N[C@@H]([C@@H](C)CC)C(=O)N1CCC[C@H]1C(=O)N2 [CIRCULIN F] (cyclo(AAIGCSCKNKVCYRAIPCGESCVWIPCIS); disulfide 5-18, 7-22, 12-27)
–	8 (≈ 3.3 nM)	CC(C)[C@@H]1NC(=O)[C@H](CCCNC(=N)N)NC(=O)[C@H](Cc2ccccc2)NC(=O)[C@@H](NC(=O)[C@H](Cc2c[nH]c3ccccc23)NC(=O)[C@H](CCCNC(=N)N)NC(=O)[C@@H](N)CCCNC(=N)N)CSSC[C@@H]2NC(=O)[C@H](Cc3ccccc3)NC(=O)CNC(=O)[C@H](CCCCN)NC(=O)[C@H](Cc3ccc(O)cc3)NC(=O)[C@H](CSSC[C@@H](C(=O)N[C@@H](CCCNC(=N)N)C(N)=O)NC(=O)[C@H](CCCCN)NC(=O)[C@H](CCCNC(=N)N)NC(=O)[C@H](Cc3ccc(O)cc3)NC2=O)NC1=O [POLYPHEMUSIN II] (H-RRWCFRVCYKGFCYRKCR-NH2; disulfide 4-13, 8-17)

Further lines, the compound ahead of its results:

SMILES	EC50 [1] [µM]	EC50 [2] [ng/mL]
CC[C@H](C)[C@@H]1NC(=O)[C@@H]2CSSC[C@@H]3NC(=O)[C@H](C(C)C)NC(=O)[C@H](CCCCN)NC(=O)[C@H](CO)NC(=O)[C@H](CCCCN)NC(=O)[C@@H]4CSSC[C@H](NC(=O)[C@H](CO)NC(=O)[C@H](CCC(=O)O)NC(=O)CNC(=O)[C@H](CSSC[C@H](NC(=O)CNC(=O)[C@H](C)NC(=O)[C@H](C(C)C)NC(=O)[C@H](CO)NC(=O)[C@H]([C@@H](C)O)NC1=O)C(=O)N[C@@H](CO)C(=O)N4)NC(=O)[C@@H]1CCCN1C(=O)[C@H]([C@@H](C)CC)NC(=O)CNC(=O)[C@H](CC(N)=O)NC(=O)[C@H](CCCNC(=N)N)NC(=O)[C@H](Cc1ccc(O)cc1)NC3=O)C(=O)N[C@@H](C(C)C)C(=O)N[C@@H](Cc1ccccc1)C(=O)N[C@@H]([C@@H](C)CC)C(=O)N1CCC[C@H]1C(=O)N2 [CIRCULIN C] (cyclo(AGCSCKSKVCYRNGIPCGESCVFIPCITSV); disulfide 3-17, 5-21, 10-26)	0.04	–
CC[C@H](C)[C@@H]1NC(=O)[C@H](CO)NC(=O)[C@H]([C@@H](C)O)NC(=O)[C@H](Cc2ccc(O)cc2)NC(=O)[C@@H]2CSSC[C@@H]3NC(=O)[C@H](C(C)C)NC(=O)[C@H](CCCCN)NC(=O)[C@H](CC(N)=O)NC(=O)[C@H](CCC(=O)O)NC(=O)[C@@H]4CSSC[C@H](NC(=O)[C@H](CO)NC(=O)[C@H](CCC(=O)O)NC(=O)CNC(=O)[C@H](CSSC[C@H](NC(=O)[C@H](CC(N)=O)NC(=O)[C@H](Cc5ccccc5)NC1=O)C(=O)N[C@@H](CCCCN)C(=O)N4)NC(=O)[C@@H]1CCCN1C(=O)[C@H]([C@@H](C)CC)NC(=O)[C@H](CCCCN)NC(=O)[C@H](CC(=O)O)NC(=O)[C@H](Cc1cnc[nH]1)NC(=O)[C@H](Cc1ccc(O)cc1)NC3=O)C(=O)N[C@@H](C(C)C)C(=O)N[C@@H](Cc1c[nH]c3ccccc13)C(=O)N[C@@H]([C@@H](C)CC)C(=O)N1CCC[C@H]1C(=O)N2 [CIRCULIN D] (cyclo(CENKVCYHDKIPCGESCVWIPCYTSIFNCK); disulfide 1-17, 6-22, 13-29)	0.04	–
CC[C@H](C)[C@@H]1NC(=O)[C@@H]2CSSC[C@@H]3NC(=O)[C@H](C(C)C)NC(=O)[C@H](CCCCN)NC(=O)[C@H](CC(N)=O)NC(=O)[C@H](CCCCN)NC(=O)[C@@H]4CSSC[C@H](NC(=O)[C@H](CO)NC(=O)[C@H](CCC(=O)O)NC(=O)CNC(=O)[C@H](CSSC[C@H](NC(=O)CNC(=O)[C@H](CC(C)C)NC(=O)[C@H](CC(C)C)NC(=O)[C@H]([C@@H](C)O)NC(=O)[C@H](CO)NC1=O)C(=O)N[C@@H](CO)C(=O)N4)NC(=O)[C@@H]1CCCN1C(=O)[C@H]([C@@H](C)CC)NC(=O)[C@H](C(C)C)NC(=O)CNC(=O)[C@H](CC(N)=O)NC(=O)[C@H](CCCNC(=N)N)NC(=O)[C@H](Cc1ccc(O)cc1)NC3=O)C(=O)N[C@@H](C(C)C)C(=O)N[C@@H](Cc1ccccc1)C(=O)N[C@@H]([C@@H](C)CC)C(=O)N1CCC[C@H]1C(=O)N2 [CIRCULIN B] (cyclo(CGESCVFIPCISTLLGCSCKNKVCYRNGVIP); disulfide 1-17, 5-19, 10-24)	0.04	–
CC[C@H](C)[C@@H]1NC(=O)[C@@H]2CSSC[C@@H]3NC(=O)[C@H](C(C)C)NC(=O)[C@H](CCCCN)NC(=O)[C@H](CC(N)=O)NC(=O)[C@H](CCCCN)NC(=O)[C@@H]4CSSC[C@H](NC(=O)[C@H](CO)NC(=O)[C@H](CCC(=O)O)NC(=O)CNC(=O)[C@H](CSSC[C@H](NC(=O)CNC(=O)[C@H](CC(C)C)NC(=O)[C@H](C)NC(=O)[C@H](C)NC(=O)[C@H](CO)NC1=O)C(=O)N[C@@H](CO)C(=O)N4)NC(=O)[C@@H]1CCCN1C(=O)[C@H]([C@@H](C)CC)NC(=O)CNC(=O)[C@H](CC(N)=O)NC(=O)[C@H](CCCNC(=N)N)NC(=O)[C@H](Cc1ccc(O)cc1)NC3=O)C(=O)N[C@@H](C(C)C)C(=O)N[C@@H](Cc1c[nH]c3ccccc13)C(=O)N[C@@H]([C@@H](C)CC)C(=O)N1CCC[C@H]1C(=O)N2 [CIRCULIN A] (cyclo(AALGCSCKNKVCYRNGIPCGESCVWIPCIS); disulfide 5-19, 7-23, 12-28)	0.04	–
